Assays:
Type in all cases: in vivo
[1] = test system: antibody forming capacities against SRBC; test: Antibody forming capacity (direct plaque-forming cells against SRBC) in mice injected with immunosuppressive factor
Experimental: Splenic lymphocytes producing antibody against sheep blood red cells (SRBC) were quantitated using Cunningham modification (Cunningham, A.J., Nature, 207, 1106-1107, 1965) of the Jerne plaque assay.
[…] Samples were administered to mice intraperitoneally four times before immunization. Mice were sacrificed 4 days after the injection of SRBC, and the number of direct plaque-forming cells per spleen was determined.

[2] = test system: antibody forming capacities; test: Antibody forming capacity (PFC-SRBC) in mice immunosuppressed with mitomycin C
Experimental: Female BDF1 (8 weeks in age) mice were injected intraperitoneally with mitomycin C (1 mg/kg) from four days before immuization with 5 x 10^8 SRBC, every day for three days. Samples also were administered to mice intraperitoneally from four days before immunization, every day for five days.
At day 9, mice were sacrificed and the number of direct plaque forming cells per spleen was measured by using Cunningham modification method.

thymus = test: Dexamethasone-induced thymus atrophy in mice; details: for Thymus weight: Dexamethasone treatment Yes, n=5
Experimental: Five week-old ddY mice(male) were used. Samples were given subcutaneously twice per day from day 0 to day 2 of the experiment. Five hours after first medication on day 0, mice were supplied with drinking water containing 1 ug/ml of dexamethasone.
At day 2, the weight of thymus of the treated mice was compared with that of the nontreated controls.

With `O[C@H]1[C@H]2[C@H](O)CCCN2C[C@H]1O` [Swainsonine] as the molecule, how does the “PFC-SRBC/spleen (average number of 5 mice/group)” value (from here on “PFC-SRBC/spleen”) ([1]; BDF1 mice, Swainsonine 100 mg/kg/day intraperitoneally, alone (normal mice)) read?
Its value is 16.49 x 10^4 PFC-SRBC/spleen.

What about the “PFC-SRBC/spleen” value ([1]; Immunosuppressive factor (0.3 ml/mouse/day) + Swainsonine 3.7 mg/kg i.p.) of the same molecule?
Its value is 20.77 x 10^4 PFC-SRBC/spleen.

What about the “PFC-SRBC/spleen” value ([1]; Immunosuppressive factor (0.3 ml/mouse/day) + Swainsonine 11 mg/kg i.p.) of the same molecule?
The value was 20.08 x 10^4 PFC-SRBC/spleen.

What about the “PFC-SRBC/spleen” value ([1]; Immunosuppressive factor (0.3 ml/mouse/day) + Swainsonine 33 mg/kg i.p.) of the same molecule?
Its value is 20.84 x 10^4 PFC-SRBC/spleen.

And the “PFC-SRBC/spleen” value ([1]; Immunosuppressive factor (0.3 ml/mouse/day) + Swainsonine 100 mg/kg i.p.)?
The value was 17.39 x 10^4 PFC-SRBC/spleen.

What about the “capacities to produce antibody against SRBC” value (“capacities to produce antibody” below) ([1]; mice injected immunosuppressive factor, intraperitoneal administration) of the same molecule?
The value was “restored the capacities”.

And the “capacities to produce antibody” value ([1]; normal mice)?
Its value is “did not enhance”.

And the “PFC-SRBC/spleen” value ([2]; BDF1 mice, Swainsonine 100 mg/kg i.p. alone)?
Its value is 21.66 x 10^4 PFC-SRBC/spleen.

What about the “PFC-SRBC/spleen” value ([2]; Mitomycin C (1.0 mg/kg) + Swainsonine 3.7 mg/kg i.p.) of the same molecule?
Its value is 21.31 x 10^4 PFC-SRBC/spleen.

And the “PFC-SRBC/spleen” value ([2]; Mitomycin C (1.0 mg/kg) + Swainsonine 11 mg/kg i.p.)?
The value was 20.90 x 10^4 PFC-SRBC/spleen.

What about the “PFC-SRBC/spleen” value ([2]; Mitomycin C (1.0 mg/kg) + Swainsonine 33 mg/kg i.p.) of the same molecule?
The value was 20.90 x 10^4 PFC-SRBC/spleen.

What about the “PFC-SRBC/spleen” value ([2]; Mitomycin C (1.0 mg/kg) + Swainsonine 100 mg/kg i.p.) of the same molecule?
Its value is 21.79 x 10^4 PFC-SRBC/spleen.

What about the “capacities to produce antibody” value ([2]; mice injected mitomycin C) of the same molecule?
The value was “restored the capacities”.

What about the Thymus weight (thymus; sample 5 mg/kg subcutaneously twice per day) of the same molecule?
Its Thymus weight is 73.0 mg/mouse.

What about the Thymus weight (thymus; sample 15 mg/kg subcutaneously twice per day) of the same molecule?
The Thymus weight was 78.8 mg/mouse.

What about the Thymus weight (thymus; sample 50 mg/kg subcutaneously twice per day) of the same molecule?
Its Thymus weight is 72.4 mg/mouse.

What about the “atrophy of thymus induced by dexamethasone” value (thymus; mice) of the same molecule?
Its value is “prevents”.

From EP0104826A2, “Immunomodulator and method of use for immunomodulation” (FUJISAWA PHARMACEUTICAL CO., LTD., priority 1982, dated 1984)
